Measurements published in ChEMBL document CHEMBL5465560, “Selectivity Literature for EUbOPEN Chemogenomic Library” (2024).

Legend:
[1] = target: Serine/threonine-protein kinase 32B (Homo sapiens) (UniProt Q9NY57); assay: Selectivity interaction (KinomeScan (DiscoverX)) EUB0000092b STK32B; settings: at 10 µM
[2] = target: BDNF/NT-3 growth factors receptor (Homo sapiens) (UniProt Q16620); assay: Selectivity interaction (KinomeScan (DiscoverX)) EUB0000655a NTRK2; settings: at 10 µM
[3] = target: T1, Discoidin domain-containing receptor 2 (Homo sapiens) (UniProt Q16832); assay: Selectivity interaction (ProQinase) EUB0000171b DDR2
T1 sequence (whole entry): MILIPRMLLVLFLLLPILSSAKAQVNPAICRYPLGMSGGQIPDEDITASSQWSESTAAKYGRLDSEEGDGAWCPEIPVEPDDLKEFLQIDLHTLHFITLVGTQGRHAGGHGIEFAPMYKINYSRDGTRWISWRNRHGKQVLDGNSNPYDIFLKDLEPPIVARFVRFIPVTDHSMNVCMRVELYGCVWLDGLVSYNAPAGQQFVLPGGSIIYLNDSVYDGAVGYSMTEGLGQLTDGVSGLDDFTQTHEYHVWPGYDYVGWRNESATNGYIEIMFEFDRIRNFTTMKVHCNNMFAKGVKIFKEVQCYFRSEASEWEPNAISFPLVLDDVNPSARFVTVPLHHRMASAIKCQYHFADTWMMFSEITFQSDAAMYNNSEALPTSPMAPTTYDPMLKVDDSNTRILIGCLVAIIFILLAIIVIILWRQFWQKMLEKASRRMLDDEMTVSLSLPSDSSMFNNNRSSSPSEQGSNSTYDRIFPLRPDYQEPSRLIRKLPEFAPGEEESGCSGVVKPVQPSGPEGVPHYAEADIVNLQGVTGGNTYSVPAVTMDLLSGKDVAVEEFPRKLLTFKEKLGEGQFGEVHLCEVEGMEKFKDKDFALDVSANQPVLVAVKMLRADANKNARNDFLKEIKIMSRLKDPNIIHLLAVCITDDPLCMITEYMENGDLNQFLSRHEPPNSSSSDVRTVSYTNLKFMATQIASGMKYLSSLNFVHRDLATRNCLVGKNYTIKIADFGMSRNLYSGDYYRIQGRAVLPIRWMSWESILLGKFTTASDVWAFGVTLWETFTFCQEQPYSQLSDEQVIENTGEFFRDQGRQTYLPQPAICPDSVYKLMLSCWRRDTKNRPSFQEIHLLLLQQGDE

[4] = test system: Fibroblast growth factor receptor 3 (Homo sapiens), P22607 [G697C]; assay: (§1) Selectivity interaction (ProQinase) EUB0000171b FGFR3
Sequence of Fibroblast growth factor receptor 3 (Homo sapiens), P22607 [G697C] (P22607 whole entry G697C): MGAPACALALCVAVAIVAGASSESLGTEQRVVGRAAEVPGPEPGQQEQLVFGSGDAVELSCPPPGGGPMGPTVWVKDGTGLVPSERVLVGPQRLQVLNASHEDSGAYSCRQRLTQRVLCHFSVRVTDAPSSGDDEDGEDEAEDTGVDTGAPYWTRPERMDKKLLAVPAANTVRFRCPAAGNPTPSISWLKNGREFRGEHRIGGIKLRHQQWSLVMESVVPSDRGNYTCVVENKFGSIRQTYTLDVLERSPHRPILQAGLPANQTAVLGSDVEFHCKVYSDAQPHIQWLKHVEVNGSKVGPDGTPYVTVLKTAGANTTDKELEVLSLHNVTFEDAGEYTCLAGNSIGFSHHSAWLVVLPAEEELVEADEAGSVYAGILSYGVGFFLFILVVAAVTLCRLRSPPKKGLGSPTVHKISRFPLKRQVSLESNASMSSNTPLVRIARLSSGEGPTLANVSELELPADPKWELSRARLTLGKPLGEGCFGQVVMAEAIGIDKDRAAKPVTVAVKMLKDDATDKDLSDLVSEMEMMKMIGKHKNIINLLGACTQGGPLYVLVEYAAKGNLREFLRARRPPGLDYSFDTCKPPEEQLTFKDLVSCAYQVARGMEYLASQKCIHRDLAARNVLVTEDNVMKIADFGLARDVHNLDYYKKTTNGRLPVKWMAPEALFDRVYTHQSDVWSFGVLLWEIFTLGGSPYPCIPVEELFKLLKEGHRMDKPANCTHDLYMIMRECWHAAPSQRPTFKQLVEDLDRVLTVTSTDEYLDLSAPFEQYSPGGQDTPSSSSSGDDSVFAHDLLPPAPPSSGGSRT

[5] = test system: Fibroblast growth factor receptor 3 (Homo sapiens), P22607 [K650E]; assay: as §1
Sequence of Fibroblast growth factor receptor 3 (Homo sapiens), P22607 [K650E] (P22607 whole entry K650E): as the sequence (P22607 whole entry G697C) above, with K650E, C697G counted along it

[6] = test system: Fibroblast growth factor receptor 3 (Homo sapiens), P22607 [K650M]; assay: as §1
Sequence of Fibroblast growth factor receptor 3 (Homo sapiens), P22607 [K650M] (P22607 whole entry K650M): as the sequence (P22607 whole entry G697C) above, with K650M, C697G counted along it

[7] = target: Fibroblast growth factor receptor 3 (Homo sapiens, UniProt P22607); assay: as §1
Sequence of Fibroblast growth factor receptor 3 (P22607 23-806 limits assumed): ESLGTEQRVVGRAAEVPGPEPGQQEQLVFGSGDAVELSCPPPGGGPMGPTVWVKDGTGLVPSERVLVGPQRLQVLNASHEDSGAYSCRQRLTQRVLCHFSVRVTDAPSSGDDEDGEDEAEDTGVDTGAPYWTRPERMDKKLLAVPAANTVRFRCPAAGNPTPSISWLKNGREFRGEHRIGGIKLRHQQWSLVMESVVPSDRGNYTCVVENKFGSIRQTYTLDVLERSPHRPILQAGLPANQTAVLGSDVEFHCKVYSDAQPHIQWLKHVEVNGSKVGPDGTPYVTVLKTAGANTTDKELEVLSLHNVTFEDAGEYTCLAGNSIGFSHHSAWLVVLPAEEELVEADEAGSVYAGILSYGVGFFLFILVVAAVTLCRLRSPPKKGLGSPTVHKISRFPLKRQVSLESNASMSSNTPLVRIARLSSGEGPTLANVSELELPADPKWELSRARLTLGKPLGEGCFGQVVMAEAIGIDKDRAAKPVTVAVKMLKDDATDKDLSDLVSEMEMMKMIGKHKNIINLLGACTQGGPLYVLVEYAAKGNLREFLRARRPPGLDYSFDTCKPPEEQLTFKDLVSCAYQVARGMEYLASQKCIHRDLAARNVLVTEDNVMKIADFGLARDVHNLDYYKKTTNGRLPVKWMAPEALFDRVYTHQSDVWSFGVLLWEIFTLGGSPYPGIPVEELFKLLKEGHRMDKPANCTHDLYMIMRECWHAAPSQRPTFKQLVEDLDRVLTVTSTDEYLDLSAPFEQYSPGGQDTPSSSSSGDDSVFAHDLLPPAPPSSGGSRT

[8] = target: Serine/threonine-protein kinase SIK3 (Homo sapiens) (UniProt Q9Y2K2); assay: Selectivity interaction (ProQinase) EUB0000171b SIK3
Sequence of Serine/threonine-protein kinase SIK3 (Homo sapiens) (Q9Y2K2 whole entry, looked up): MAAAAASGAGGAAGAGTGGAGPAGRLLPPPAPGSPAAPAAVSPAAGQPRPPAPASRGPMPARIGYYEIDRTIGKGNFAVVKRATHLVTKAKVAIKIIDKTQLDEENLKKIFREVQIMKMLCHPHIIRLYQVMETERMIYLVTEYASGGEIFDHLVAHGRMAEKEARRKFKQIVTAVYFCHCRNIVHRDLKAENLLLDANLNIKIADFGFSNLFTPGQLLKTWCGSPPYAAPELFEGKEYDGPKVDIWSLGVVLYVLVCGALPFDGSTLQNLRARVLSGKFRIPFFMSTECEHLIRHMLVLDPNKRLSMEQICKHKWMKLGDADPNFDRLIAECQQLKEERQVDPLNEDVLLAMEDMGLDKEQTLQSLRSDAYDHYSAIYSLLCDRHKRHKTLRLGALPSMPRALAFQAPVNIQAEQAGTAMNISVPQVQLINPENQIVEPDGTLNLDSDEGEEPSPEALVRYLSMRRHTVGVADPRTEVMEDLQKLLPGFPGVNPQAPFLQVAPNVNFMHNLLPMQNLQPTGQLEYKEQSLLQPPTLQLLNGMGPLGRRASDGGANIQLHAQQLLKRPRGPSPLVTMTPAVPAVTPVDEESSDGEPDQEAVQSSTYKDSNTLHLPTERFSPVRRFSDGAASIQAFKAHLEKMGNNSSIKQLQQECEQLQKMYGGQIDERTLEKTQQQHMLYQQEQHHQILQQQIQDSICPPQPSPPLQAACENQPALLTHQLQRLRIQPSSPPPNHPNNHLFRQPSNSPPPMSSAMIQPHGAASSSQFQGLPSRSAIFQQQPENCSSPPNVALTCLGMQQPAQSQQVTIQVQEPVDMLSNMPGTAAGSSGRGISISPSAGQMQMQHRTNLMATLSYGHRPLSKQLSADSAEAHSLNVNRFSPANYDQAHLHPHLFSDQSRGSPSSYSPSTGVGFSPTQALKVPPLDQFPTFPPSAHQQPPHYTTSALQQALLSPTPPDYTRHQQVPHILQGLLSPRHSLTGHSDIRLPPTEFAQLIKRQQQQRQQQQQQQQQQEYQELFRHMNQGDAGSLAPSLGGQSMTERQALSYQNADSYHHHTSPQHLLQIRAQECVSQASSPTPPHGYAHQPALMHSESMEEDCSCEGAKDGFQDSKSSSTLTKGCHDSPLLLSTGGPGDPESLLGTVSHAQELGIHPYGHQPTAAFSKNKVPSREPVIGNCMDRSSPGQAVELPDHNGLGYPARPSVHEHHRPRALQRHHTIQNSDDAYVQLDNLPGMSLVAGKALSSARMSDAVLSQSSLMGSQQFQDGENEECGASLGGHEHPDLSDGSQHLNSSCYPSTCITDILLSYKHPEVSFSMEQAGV

[9] = target: Insulin receptor-related protein (Homo sapiens) (UniProt P14616); settings: at 10 µM
Sequence of Insulin receptor-related protein (Homo sapiens) (P14616 27-742 limits assumed): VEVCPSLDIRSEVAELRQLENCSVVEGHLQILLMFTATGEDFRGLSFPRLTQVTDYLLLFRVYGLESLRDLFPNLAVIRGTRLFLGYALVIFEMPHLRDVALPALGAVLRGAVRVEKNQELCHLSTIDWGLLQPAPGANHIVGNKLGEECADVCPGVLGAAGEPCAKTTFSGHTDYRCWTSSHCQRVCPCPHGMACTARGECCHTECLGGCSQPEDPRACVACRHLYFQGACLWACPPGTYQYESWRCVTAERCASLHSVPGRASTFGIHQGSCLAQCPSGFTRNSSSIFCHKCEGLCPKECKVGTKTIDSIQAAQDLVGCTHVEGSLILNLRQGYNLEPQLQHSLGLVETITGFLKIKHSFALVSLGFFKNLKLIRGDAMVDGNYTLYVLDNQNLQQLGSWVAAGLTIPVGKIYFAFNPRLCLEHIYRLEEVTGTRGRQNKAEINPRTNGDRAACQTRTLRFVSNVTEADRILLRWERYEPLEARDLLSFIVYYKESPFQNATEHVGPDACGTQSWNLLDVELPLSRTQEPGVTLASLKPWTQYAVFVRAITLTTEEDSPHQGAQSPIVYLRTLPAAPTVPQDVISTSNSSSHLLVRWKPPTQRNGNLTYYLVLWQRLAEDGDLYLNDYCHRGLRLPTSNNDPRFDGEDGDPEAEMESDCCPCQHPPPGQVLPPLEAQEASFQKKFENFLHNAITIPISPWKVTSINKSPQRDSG
Sequence of Insulin receptor-related protein (Homo sapiens) (P14616 747-1297 limits assumed): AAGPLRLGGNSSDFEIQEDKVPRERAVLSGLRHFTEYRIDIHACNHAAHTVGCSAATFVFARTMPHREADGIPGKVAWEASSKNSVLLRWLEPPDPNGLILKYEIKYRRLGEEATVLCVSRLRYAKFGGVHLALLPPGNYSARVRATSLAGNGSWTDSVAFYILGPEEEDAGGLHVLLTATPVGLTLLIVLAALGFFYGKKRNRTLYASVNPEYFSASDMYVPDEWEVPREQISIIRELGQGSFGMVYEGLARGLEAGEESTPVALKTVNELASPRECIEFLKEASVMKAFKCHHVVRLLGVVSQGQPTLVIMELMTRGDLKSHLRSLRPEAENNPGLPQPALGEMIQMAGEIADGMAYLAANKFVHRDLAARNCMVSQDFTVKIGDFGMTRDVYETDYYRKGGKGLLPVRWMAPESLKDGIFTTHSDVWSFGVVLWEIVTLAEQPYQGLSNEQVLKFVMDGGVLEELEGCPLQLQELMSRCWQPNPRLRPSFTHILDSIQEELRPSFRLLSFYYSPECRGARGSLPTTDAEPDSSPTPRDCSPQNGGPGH

[10] = target: Tyrosine-protein kinase Yes (Homo sapiens) (UniProt P07947); assay: Selectivity interaction (Kinase panel (Z-LYTE Assay)) EUB0001632a YES1; settings: at 10 µM
[11] = target: Tyrosine-protein kinase ABL2 (Homo sapiens, UniProt P42684); assay: Selectivity interaction (KinomeScan (DiscoverX)) EUB0000595a ABL2; settings: at 10 µM
[12] = target: T2, Mitogen-activated protein kinase kinase kinase kinase 2 (Homo sapiens) (UniProt Q12851); assay: Selectivity interaction (Kinase panel (literature)) EUB0001199aCl MAP4K2; settings: at 1 µM
T2 sequence (whole entry): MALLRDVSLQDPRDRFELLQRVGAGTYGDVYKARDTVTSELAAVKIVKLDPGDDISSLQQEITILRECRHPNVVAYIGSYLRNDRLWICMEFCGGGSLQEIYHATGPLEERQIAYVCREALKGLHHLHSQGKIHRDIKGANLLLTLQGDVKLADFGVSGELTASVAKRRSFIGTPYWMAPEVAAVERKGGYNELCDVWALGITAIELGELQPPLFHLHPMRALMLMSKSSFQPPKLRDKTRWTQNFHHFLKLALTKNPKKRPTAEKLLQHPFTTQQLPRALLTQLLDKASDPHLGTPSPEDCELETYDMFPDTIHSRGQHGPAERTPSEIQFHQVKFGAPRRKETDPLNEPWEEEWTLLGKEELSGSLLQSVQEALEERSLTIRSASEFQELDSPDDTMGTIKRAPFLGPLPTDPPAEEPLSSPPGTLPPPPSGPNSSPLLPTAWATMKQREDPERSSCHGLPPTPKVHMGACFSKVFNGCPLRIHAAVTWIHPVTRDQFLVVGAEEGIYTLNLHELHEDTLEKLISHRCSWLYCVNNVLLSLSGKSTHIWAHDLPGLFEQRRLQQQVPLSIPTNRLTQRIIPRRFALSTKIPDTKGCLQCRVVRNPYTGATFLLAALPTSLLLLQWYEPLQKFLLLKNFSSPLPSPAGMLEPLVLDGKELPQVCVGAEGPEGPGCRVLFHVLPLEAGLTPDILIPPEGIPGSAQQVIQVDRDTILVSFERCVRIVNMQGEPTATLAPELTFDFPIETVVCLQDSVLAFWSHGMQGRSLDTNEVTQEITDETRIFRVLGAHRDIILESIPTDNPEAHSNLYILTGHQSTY

[13] = target: Phosphatidylinositol 4,5-bisphosphate 3-kinase catalytic subunit gamma isoform (Homo sapiens) (UniProt P48736); assay: Selectivity interaction (Kinase panel (literature)) EUB0001199aCl PIK3CG; settings: at 1 µM
[14] = target: Mitogen-activated protein kinase kinase kinase 4 (Homo sapiens) (UniProt Q9Y6R4); assay: Selectivity interaction (KinomeScan (DiscoverX)) EUB0000618a MAP3K4; settings: at 10 µM
[15] = target: Glycogen synthase kinase-3 beta (Homo sapiens, UniProt P49841); assay: Selectivity interaction (Ambit KINOMEscan and KiNATiv profiling in Jurkat cells) EUB0000090b GSK3B; assay type: cell-based; settings: at 1 µM
[16] = target: Maternal embryonic leucine zipper kinase (Homo sapiens) (UniProt Q14680); assay: Selectivity interaction (Ambit KINOMEscan and KiNATiv profiling in Jurkat cells) EUB0000090b MELK; assay type: cell-based; settings: at 1 µM
[17] = target: SRSF protein kinase 1 (Homo sapiens, UniProt Q96SB4); assay: Selectivity interaction (Ambit KINOMEscan and KiNATiv profiling in Jurkat cells) EUB0000090b SRPK1; assay type: cell-based; settings: at 1 µM
Sequence of SRSF protein kinase 1 (Q96SB4 whole entry): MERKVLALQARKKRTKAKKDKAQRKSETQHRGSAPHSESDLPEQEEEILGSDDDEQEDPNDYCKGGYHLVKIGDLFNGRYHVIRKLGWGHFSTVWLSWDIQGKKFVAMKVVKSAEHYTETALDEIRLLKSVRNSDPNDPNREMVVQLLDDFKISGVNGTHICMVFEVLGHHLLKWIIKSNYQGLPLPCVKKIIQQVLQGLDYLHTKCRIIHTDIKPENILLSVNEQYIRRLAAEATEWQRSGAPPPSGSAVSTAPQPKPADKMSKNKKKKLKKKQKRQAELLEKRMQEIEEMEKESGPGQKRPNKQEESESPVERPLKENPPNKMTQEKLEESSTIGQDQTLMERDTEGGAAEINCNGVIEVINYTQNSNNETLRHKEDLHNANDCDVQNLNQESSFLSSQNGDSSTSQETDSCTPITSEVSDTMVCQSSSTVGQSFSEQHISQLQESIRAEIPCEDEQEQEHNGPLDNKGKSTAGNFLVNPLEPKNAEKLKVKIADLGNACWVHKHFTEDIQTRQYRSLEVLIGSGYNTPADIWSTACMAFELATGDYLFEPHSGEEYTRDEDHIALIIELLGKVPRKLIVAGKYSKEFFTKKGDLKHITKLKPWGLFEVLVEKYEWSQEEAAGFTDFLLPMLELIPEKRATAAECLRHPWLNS

In the case of CCC(=O)N1CCN(c2ccc(-n3c(=O)ccc4cnc5ccc(-c6cnc7ccccc7c6)cc5c43)cc2C(F)(F)F)CC1, the % of control [1] is reported as 87%.

For CN(C)CCOc1ccc(-c2nc(-c3ccncc3)c(-c3ccc4c(c3)CC/C4=N\O)[nH]2)cc1, the % of control [2] was 75%.

C=CC(=O)Nc1cccc(C(=O)Nc2ccc(Nc3cc(-c4[nH]c(SC)nc4C)ccn3)cc2)c1 was tested, and the % of control ([3]; at 1 µM) was 90%, the % of control ([3]; at 5 µM) was 76% and the % of control ([4]; at 1 µM) was 103%. It also gave a % of control ([4]; at 5 µM) of 83%, a % of control ([5]; at 1 µM) of 104% and a % of control ([5]; at 5 µM) of 79%. For the same compound, the % of control ([6]; at 1 µM) was 97%, the % of control ([6]; at 5 µM) was 72% and the % of control ([7]; at 1 µM) was 98%. For the same compound, the % of control ([7]; at 5 µM) was 78%, the % of control ([8]; at 1 µM) was 65% and the % of control ([8]; at 5 µM) was 47%.

For Cc1cc([C@@H](C)Nc2ccccc2C(=O)O)c2nc(N3CCOCC3)cc(=O)n2c1 [AZD-6482], the % of control [9] was 100%.

Cn1cc(-n2cnc3c(NCc4nc5cc(Cl)c(Cl)cc5[nH]4)nc(N4CCOCC4)nc32)cn1 was tested, and the % of control [10] was 0.787%.

For COCC(=O)NC/C=C/c1ccc2ncnc(Nc3ccc(Oc4ccc(C)nc4)c(C)c3)c2c1 [CP-724714], the % of control [11] was 100%.

Work on CN1Cc2nccc(-c3cn(C)nc3-c3ccc(F)cc3)c2C1=O yielded a % of inhibition [12] of 4% and a % of inhibition [13] of -10%.

O[C@H]1CC[C@H](Nc2ncc3nc(Nc4c(F)cc(F)cc4F)n([C@H]4CCOC4)c3n2)CC1 showed a % of control [14] of 100%.

CN(C)C/C=C/C(=O)Nc1ccc(C(=O)N2CCCC(Nc3ncc(Cl)c(-c4c[nH]c5ccccc45)n3)C2)cc1 (stereo not drawn) showed a % of control [15] of 38%, a % of control [16] of 75% and a % of control [17] of 52%.
